This test relates to 186277-243-T-J2-PDC spheroids with HUVEC/MSC, viability. Put plainly: Anticancer human tumor 186277-243-T-J2-PDC patient-derived colon adenocarcinoma cell line growth inhibition [CLK]. As to conditions: for viability, T/C: stronger effect = lower value. Put shortly: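 Patient-derived tumor cells grown as complex spheroids with HUVEC endothelial cells and mesenchymal stem cells, treated with drug combinations. Concentrations descend in half-log steps from near clinical Cmax, or from 10 microM if Cmax unknown.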

Where [1] appears, read: curve of first compound, second compound 0.0316 µM.
Where [2] appears, read: curve of first compound, second compound 0.1 µM.
Where [3] appears, read: curve of first compound, second compound 0.316 µM.
Setting [4] is: curve of first compound, second compound 1 µM.
Where [5] appears, read: curve of first compound, second compound 3.16 µM.
Setting [6] is: curve of first compound, second compound 10 µM.

As a reminder, the IC50 is the midpoint of a concentration-inhibition curve. As a reminder, the viability, T/C is the ratio of treated to control.

Each structure is given as a SMILES string. “And” between values parts separate entries of the source, which are not always exact repeats. Identical values can stand only once.
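Further: compound exposure lasted seven days before readout.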
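Wherever viability, T/C is given: 100% = DMSO vehicle control wells.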

Regarding `NC(=O)C(=Cn1cnc(-c2cc(C(F)(F)F)cc(C(F)(F)F)c2)n1)c1cncnc1` + CNC(=O)c1ccc(Nc2nc(OC3CCCC3)c3c(-c4ccc5nc(C)oc5c4)c[nH]c3n2)c(OC)c1, the IC50 was 152 nM under setting [1]; 46 nM under setting [2]; < 9.49 nM under setting [3]; < 9.49 nM under setting [4]; < 9.49 nM under setting [5]; < 9.49 nM under setting [6]. Besides, the viability, T/C is, setting by setting: (second compound 0.0316 µM, first compound 0.00949 µM) 88.5%; (second compound 0.0316 µM, first compound 0.03 µM) 84.2%; (second compound 0.0316 µM, first compound 0.0949 µM) 79.1%; (second compound 0.0316 µM, first compound 0.3 µM) 7.94%; (second compound 0.0316 µM, first compound 0.949 µM) 3.02%; (second compound 0.0316 µM, first compound 3 µM) 5.16%. Moreover, the viability, T/C by setting is: (second compound 0.1 µM, first compound 0.00949 µM) 54.5%; (second compound 0.1 µM, first compound 0.03 µM) 55.2%; (second compound 0.1 µM, first compound 0.0949 µM) 42.1%; (second compound 0.1 µM, first compound 0.3 µM) 6.58%; (second compound 0.1 µM, first compound 0.949 µM) 3.16%; (second compound 0.1 µM, first compound 3 µM) 2.39%. The viability, T/C was 36.4% (second compound 0.316 µM, first compound 0.00949 µM); 37.7% (second compound 0.316 µM, first compound 0.03 µM); 17.6% (second compound 0.316 µM, first compound 0.0949 µM); 2.14% (second compound 0.316 µM, first compound 0.3 µM); 2.54% (second compound 0.316 µM, first compound 0.949 µM); 1.77% (second compound 0.316 µM, first compound 3 µM). Also, the viability, T/C was 25.6% (second compound 1 µM, first compound 0.00949 µM); 24.7% (second compound 1 µM, first compound 0.03 µM); 7.44% (second compound 1 µM, first compound 0.0949 µM); 2.4% (second compound 1 µM, first compound 0.3 µM); 1.17% (second compound 1 µM, first compound 0.949 µM); 2.9% (second compound 1 µM, first compound 3 µM). Further, the viability, T/C by setting is: (second compound 3.16 µM, first compound 0.00949 µM) 26.8%; (second compound 3.16 µM, first compound 0.03 µM) 24.6%; (second compound 3.16 µM, first compound 0.0949 µM) 3.89%; (second compound 3.16 µM, first compound 0.3 µM) 0.59%; (second compound 3.16 µM, first compound 0.949 µM) 2.87%; (second compound 3.16 µM, first compound 3 µM) 3.05%. The viability, T/C was 28.3% (second compound 10 µM, first compound 0.00949 µM); 24.6% (second compound 10 µM, first compound 0.03 µM); 4.11% (second compound 10 µM, first compound 0.0949 µM); 4.12% (second compound 10 µM, first compound 0.3 µM); 0.92% (second compound 10 µM, first compound 0.949 µM); 1.85% (second compound 10 µM, first compound 3 µM).
As for `C#Cc1c(F)ccc2cc(O)cc(-c3ncc4c(N5CC6CCC(C5)N6)nc(OCC56CCCN5CC(F)C6)nc4c3F)c12` (stereo not given) + CNC(=O)c1ccc(Nc2nc(OC3CCCC3)c3c(-c4ccc5nc(C)oc5c4)c[nH]c3n2)c(OC)c1, the IC50 under setting [1] was found to be 244 nM; the concentration for half-maximal inhibition (IC50) under setting [2] is < 31.6 nM; the 50% inhibitory concentration (IC50) under setting [3] was < 31.6 nM; the half-maximal inhibitory concentration (IC50) under setting [4] is < 31.6 nM; the IC50 under setting [5] is < 31.6 nM; the IC50 under setting [6] is < 31.6 nM. Further, the viability, T/C (second compound 0.0316 µM, first compound 0.0316 µM) was 85.1%; the viability, T/C (second compound 0.0316 µM, first compound 0.1 µM) was 74.1%; the viability, T/C (second compound 0.0316 µM, first compound 0.316 µM) is 42.3%; the viability, T/C (second compound 0.0316 µM, first compound 1 µM) was 20.4%; the viability, T/C (second compound 0.0316 µM, first compound 3.16 µM) was 15.4%; the viability, T/C (second compound 0.0316 µM, first compound 10 µM) was 9.35%. For the same compound, the viability, T/C was 32.4% (second compound 0.1 µM, first compound 0.0316 µM); 20.2% (second compound 0.1 µM, first compound 0.1 µM); 12.4% (second compound 0.1 µM, first compound 0.316 µM); 10.1% (second compound 0.1 µM, first compound 1 µM); 9.23% (second compound 0.1 µM, first compound 3.16 µM); 7.22% (second compound 0.1 µM, first compound 10 µM). Besides, the viability, T/C was 16.6% (second compound 0.316 µM, first compound 0.0316 µM); 10.6% (second compound 0.316 µM, first compound 0.1 µM); 9.98% (second compound 0.316 µM, first compound 0.316 µM); 7.75% (second compound 0.316 µM, first compound 1 µM); 6.06% (second compound 0.316 µM, first compound 3.16 µM); 5.84% (second compound 0.316 µM, first compound 10 µM). Further, the viability, T/C runs as follows: (second compound 1 µM, first compound 0.0316 µM) 13.1%; (second compound 1 µM, first compound 0.1 µM) 9.92%; (second compound 1 µM, first compound 0.316 µM) 6.68%; (second compound 1 µM, first compound 1 µM) 8.68%; (second compound 1 µM, first compound 3.16 µM) 7.28%; (second compound 1 µM, first compound 10 µM) 3.31%. Besides, the viability, T/C was 12% (second compound 3.16 µM, first compound 0.0316 µM); 11.4% (second compound 3.16 µM, first compound 0.1 µM); 6.47% (second compound 3.16 µM, first compound 0.316 µM); 5.65% (second compound 3.16 µM, first compound 1 µM); 6.73% (second compound 3.16 µM, first compound 3.16 µM); 4.61% (second compound 3.16 µM, first compound 10 µM). Besides, the viability, T/C by setting is: (second compound 10 µM, first compound 0.0316 µM) 15.6%; (second compound 10 µM, first compound 0.1 µM) 9.24%; (second compound 10 µM, first compound 0.316 µM) 6.48%; (second compound 10 µM, first compound 1 µM) 5.74%; (second compound 10 µM, first compound 3.16 µM) 6.36%; (second compound 10 µM, first compound 10 µM) 3.45%.
In the case of `CCN1CCN(Cc2ccc(Nc3ncc(F)c(-c4cc(F)c5nc(C)n(C(C)C)c5c4)n3)nc2)CC1`, the viability, T/C (compound 0.00316 µM) is 81% and 102%; the viability, T/C (compound 0.01 µM) was 94.2% and 98.3%; the viability, T/C (compound 0.0316 µM) was 103% and 120%; the viability, T/C (compound 0.1 µM) is 121% and 116%; the viability, T/C (compound 0.316 µM) is 120% and 131%; the viability, T/C (compound 1 µM) is 117% and 107%. For the same compound, the IC50 (curve of compound) is > 1000 nM.
Consider `CCCS(=O)(=O)Nc1ccc(F)c(C(=O)c2c[nH]c3ncc(-c4ccc(Cl)cc4)cc23)c1F`, for which the viability, T/C runs as follows: (compound 0.0316 µM) 97.7% and 105%; (compound 0.1 µM) 87.2% and 89.4%; (compound 0.316 µM) 113% and 109%; (compound 1 µM) 104% and 88.5%; (compound 3.16 µM) 120% and 94%; (compound 10 µM) 82.3% and 88%. Moreover, the IC50 (curve of compound) is > 10000 nM.
As for `O=c1[nH]cc(F)c(=O)[nH]1`, the viability, T/C was 99.2% and 100% (compound 0.0316 µM); 84.2% and 98.6% (compound 0.1 µM); 99% and 94.5% (compound 0.316 µM); 93.7% and 97% (compound 1 µM); 108% and 102% (compound 3.16 µM); 65.2% and 63% (compound 10 µM). In addition, the concentration for half-maximal inhibition (IC50) (curve of compound) is > 10000 nM.

For the origin of these results see PubChem BioAssay AID2060625 (Molecular Pharmacology Branch, DTP, NCI, 2025).
